Source: US11051515B2, “3-acyl-benzamides and their use as herbicides” (Bayer Aktiengesellschaft, priority 2017, dated 2021)

Key:
ABUTH [1] = assay: Pre-emergence action against ABUTH; assay type: in vivo, Abutilon theophrasti; settings: pre-emergence, dosage 320 g/ha, scored visually after 3 weeks vs untreated controls
Method in brief: (§1)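 Seeds sown in sandy loam in wood-fiber pots and covered with soil. Greenhouse growth; visual damage scored after 3 weeks versus untreated controls (100% = dead, 0% = like control).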

PHBPU [2] = assay: Post-emergence action against PHBPU; assay type: in vivo, Pharbitis purpurea; settings: post-emergence, dosage 80 g/ha
Method in brief: (§2)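 Weeds grown in sandy loam in greenhouse, treated at one-leaf stage (2–3 weeks after sowing) with WP or EC formulations sprayed as aqueous suspension/emulsion at 600 to […] water with 0.2% wetting agent. Visual rating after about 3 weeks versus untreated controls, as % herbicidal action (100% = plants dead, 0% = like control).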

MATIN [3] = assay: Pre-emergence action against MATIN; assay type: in vivo, Matricaria inodora; settings: for Pre-emergence action against MATIN: Dosage 320 g/ha
Method in brief: as §1

ECHCG [4] = assay: Post-emergence action against ECHCG; assay type: in vivo, Echinochloa crus-galli; settings: post-emergence, dosage 80 g/ha, visual assessment about 3 weeks after treatment vs untreated controls
Method in brief: as §2

SETVI [5] = assay: Post-emergence action against SETVI; assay type: in vivo, Setaria viridis; settings: for Post-emergence action against SETVI (herbicidal action in percent): dosage 80 g/ha, visual assessment about 3 weeks after treatment vs untreated controls
Method in brief: as §2

VIOTR [6] = assay: Pre-emergence action against VIOTR; assay type: in vivo, Viola tricolor; settings: for Pre-emergence action against VIOTR: Dosage 320 g/ha
Method in brief: as §1

AMARE [7] = assay: Post-emergence action against AMARE; assay type: in vivo, Amaranthus retroflexus; settings: for Post-emergence action against AMARE (herbicidal action in percent): dosage 80 g/ha, visual assessment about 3 weeks after treatment vs untreated controls
Method in brief: as §2

AMARE [8] = assay: Pre-emergence action against AMARE; assay type: in vivo, Amaranthus retroflexus; settings: pre-emergence, dosage 320 g/ha, scored visually after 3 weeks vs untreated controls
Method in brief: as §1

CYPES [9] = assay: Post-emergence action against CYPES; assay type: in vivo, Cyperus esculentus; settings: post-emergence, dosage 80 g/ha, visual assessment about 3 weeks after treatment vs untreated controls
Method in brief: as §2

SETVI [10] = assay: Pre-emergence action against SETVI; assay type: in vivo, Setaria viridis; settings: for SETVI (Table B8, pre-emergence herbicidal activity): dosage 320 g/ha, scored visually after 3 weeks vs untreated controls
Method in brief: as §1

MATIN [11] = assay: Post-emergence action against MATIN; assay type: in vivo, Matricaria inodora; settings: for Post-emergence action against MATIN (herbicidal action in percent): dosage 80 g/ha, visual assessment about 3 weeks after treatment vs untreated controls
Method in brief: as §2

POLCO [12] = assay: Pre-emergence action against POLCO; assay type: in vivo, Polygonum convolvulus; settings: Dosage 320 g/ha, pre-emergence
Method in brief: as §1

STEME [13] = assay: Post-emergence action against STEME; assay type: in vivo, Stellaria media; settings: for Post-emergence action against STEME: dosage 80 g/ha
Method in brief: as §2

VERPE [14] = assay: Post-emergence action against VERPE; assay type: in vivo, Veronica persica; settings: dosage 80 g/ha
Method in brief: as §2

ABUTH [15] = assay: Post-emergence action against ABUTH; assay type: in vivo, Abutilon theophrasti; settings: for Post-emergence action against ABUTH (herbicidal action in percent): dosage 80 g/ha, visual assessment about 3 weeks after treatment vs untreated controls
Method in brief: as §2

AVEFA [16] = assay: Pre-emergence action against AVEFA; assay type: in vivo, Avena fatua; settings: dosage 320 g/ha, scored visually after 3 weeks vs untreated controls
Method in brief: as §1

VIOTR [17] = assay: Post-emergence action against VIOTR; assay type: in vivo, Viola tricolor; settings: for Post-emergence action against VIOTR: dosage 80 g/ha
Method in brief: as §2

AVEFA [18] = assay: Post-emergence action against AVEFA; assay type: in vivo, Avena fatua; settings: post-emergence, dosage 80 g/ha, visual assessment about 3 weeks after treatment vs untreated controls
Description: (§3) Seeds of monocotyledonous and dicotyledonous weed and crop plants are laid out in sandy loam soil in wood-fiber pots, covered with soil and cultivated in a greenhouse under good growth conditions. 2 to 3 weeks after sowing, the test plants are treated at the one-leaf stage. The compounds of the invention, formulated in the form of wettable powders (WP) or as emulsion concentrates (EC), are then sprayed onto the green parts of the plants in the form of an aqueous suspension or emulsion at a water application rate equating to […], with addition of 0.2% wetting agent. After the test plants have been left to stand in the greenhouse under optimal growth conditions for about 3 weeks, the action of the preparations is assessed visually in comparison to untreated controls (herbicidal action in percent (%): 100% activity=the plants have died, 0% activity=like control plants). […] At the same time, inventive compounds leave Gramineae crops such as barley, wheat, rye, millet/Sorghum, corn or rice virtually undamaged when applied post-emergence, even at high active ingredient dosages. In addition, some substances are also harmless to dicotyledonous crops such as soya, cotton, oilseed rape, sugar beet or potatoes. Some of the compounds according to the invention have high selectivity and are therefore suitable for controlling unwanted vegetation in agricultural crops by the post-emergence method. The data of Tables B18 to B34 below illustrate, in an exemplary manner, the […] herbicidal action of the compounds according to the invention, the herbicidal activity being stated in percent.

ECHCG [19] = assay: Pre-emergence action against ECHCG; assay type: in vivo, Echinochloa crus-galli; settings: pre-emergence, dosage 320 g/ha, scored visually after 3 weeks vs untreated controls
Method in brief: as §1

STEME [20] = assay: Pre-emergence action against STEME; assay type: in vivo, Stellaria media; settings: for Pre-emergence action against STEME: Dosage 320 g/ha
Method in brief: as §1

CYPES [21] = assay: Pre-emergence action against CYPES; assay type: in vivo, Cyperus esculentus; settings: for Pre-emergence action against CYPES (herbicidal activity): dosage 320 g/ha, scored visually after 3 weeks vs untreated controls; for Herbicidal efficacy against CYPES: 80 g of a.i./ha
Method in brief: as §1

VERPE [22] = assay: Pre-emergence action against VERPE; assay type: in vivo, Veronica persica; settings: Dosage 320 g/ha, pre-emergence
Method in brief: as §1

PHBPU [23] = assay: Pre-emergence action against PHBPU; assay type: in vivo, Pharbitis purpurea; settings: Dosage 320 g/ha, pre-emergence
Method in brief: as §1

POLCO [24] = assay: Post-emergence action against POLCO; assay type: in vivo, Polygonum convolvulus; settings: post-emergence, dosage 80 g/ha
Description: as §3

ALOMY = assay: Pre-emergence action against ALOMY; assay type: in vivo, Alopecurus myosuroides; settings: for Pre-emergence action against ALOMY (herbicidal activity in percent): dosage 320 g/ha, scored visually after 3 weeks vs untreated controls, 100% = plants have died, 0% = like control plants
Method in brief: as §1

[25] = Table V10, pre-emergence, 80 g of a.i./ha
[26] = Table V19, post-emergence, 5 g of a.i./ha
[27] = Table V21, post-emergence, 5 g of a.i./ha
[28] = Table V17, post-emergence, 5 g of a.i./ha

SMILES | Pre-emergence action against ABUTH (herbicidal activity) (ABUTH [1]) [%] | Post-emergence action against PHBPU (PHBPU [2]) | Pre-emergence action against MATIN (MATIN [3]) [%] | Post-emergence action against ECHCG (herbicidal action in percent) (ECHCG [4]) [%] | Post-emergence action against SETVI (herbicidal action in percent) (SETVI [5]) [%] | Pre-emergence action against VIOTR (VIOTR [6]) [%] | Post-emergence action against AMARE (herbicidal action in percent) (AMARE [7]) [%] | Pre-emergence action against AMARE (herbicidal activity) (AMARE [8]) [%] | SETVI (Table B8, pre-emergence herbicidal activity) (SETVI [10]) [%] | Post-emergence action against MATIN (herbicidal action in percent) (MATIN [11]) [%] | Pre-emergence action against POLCO (POLCO [12]) [%] | Post-emergence action against STEME (STEME [13]) | Post-emergence action against VERPE (VERPE [14]) | Post-emergence action against ABUTH (herbicidal action in percent) (ABUTH [15]) [%] | Pre-emergence action against AVEFA (herbicidal activity) (AVEFA [16]) [%] | Post-emergence action against VIOTR (VIOTR [17]) | Post-emergence action against AVEFA (herbicidal action in percent) (AVEFA [18]) [%] | Pre-emergence action against ECHCG (herbicidal activity) (ECHCG [19]) [%] | Pre-emergence action against STEME (STEME [20]) [%] | Pre-emergence action against CYPES (herbicidal activity) (CYPES [21]) [%] | other results
CCCn1nnnc1NC(=O)c1ccc(S(C)(=O)=O)c(C(=O)C2CC2)c1C [3-9] | 100 | 100 | 90 | 100 | 100 | 100 | 100 | 100 | 100 | 100 | 80 | 100 | 100 | 80 | 90 | 100 | 100 | 100 | – | – | Post-emergence action against CYPES (herbicidal action in percent) (CYPES [9]): 80%
CCn1nnnc1NC(=O)c1ccc(S(C)(=O)=O)c(C(C)=O)c1Cl [2-127] | 100 | 100 | 100 | 100 | 90 | 100 | 100 | 100 | 90 | 90 | – | 100 | 100 | 100 | 90 | 100 | 90 | 100 | 90 | 90 | Post-emergence action against CYPES (herbicidal action in percent) (CYPES [9]): 90%; Pre-emergence action against VERPE (VERPE [22]): 100%; Pre-emergence action against PHBPU (PHBPU [23]): 90%
CCCn1nnnc1NC(=O)c1ccc(S(C)(=O)=O)c(C(C)=O)c1C [3-7] | 100 | 90 | 100 | 100 | 100 | 100 | 100 | 100 | 100 | 100 | 90 | 100 | 100 | 100 | 90 | 100 | 100 | 100 | 90 | 100 | Post-emergence action against CYPES (herbicidal action in percent) (CYPES [9]): 80%; Post-emergence action against POLCO (POLCO [24]): 80; Pre-emergence action against VERPE (VERPE [22]): 100%; Pre-emergence action against PHBPU (PHBPU [23]): 90%; Pre-emergence action against ALOMY (herbicidal activity in percent) (ALOMY): 80%
CCCn1nnnc1NC(=O)c1ccc(SC)c(C(=O)C2CC2)c1Cl [3-123] | 100 | 90 | 100 | 100 | 90 | 100 | 100 | 100 | 100 | 100 | 80 | 100 | 100 | 80 | 100 | 100 | 100 | 90 | 90 | 80 | Post-emergence action against POLCO (POLCO [24]): 90; Pre-emergence action against VERPE (VERPE [22]): 100%
CCn1nnnc1NC(=O)c1ccc(S(C)(=O)=O)c(C(C)=O)c1C [2-7] | 100 | 80 | 100 | 100 | 100 | 100 | 100 | 100 | 100 | 100 | 90 | 100 | 100 | 100 | – | 100 | 100 | 100 | 90 | 100 | Herbicidal efficacy against STEME (STEME [20]; [25]): 90; Herbicidal efficacy against MATIN (MATIN [3]; [25]): 100; SETVI (SETVI [5]; [26]): 90; Herbicidal efficacy against VIOTR (VIOTR [6]; Table V12, pre-emergence, 20 g of a.i./ha): 90; Herbicidal efficacy against AMARE (AMARE [7]; [27]): 100; Herbicidal efficacy against SETVI (SETVI [10]; [25]): 80; Herbicidal efficacy against CYPES (CYPES [21]; Table V10, pre-emergence): 90; Herbicidal efficacy against CYPES (CYPES [21]; Table V11, pre-emergence): 90; Herbicidal efficacy against MATIN (MATIN [11]; [28]): 100; MATIN (MATIN [11]; [26]): 100; STEME (STEME [13]; [26]): 100; Herbicidal efficacy against STEME (STEME [13]; [27]): 100; Post-emergence action against POLCO (POLCO [24]): 100; ABUTH (ABUTH [15]; [26]): 100; Herbicidal efficacy against ABUTH (ABUTH [15]; [27]): 100; Pre-emergence action against VERPE (VERPE [22]): 100%; Herbicidal efficacy against VIOTR (VIOTR [17]; [28]): 100; VIOTR (VIOTR [17]; [26]): 100; Herbicidal efficacy against ALOMY (ALOMY; [25]): 70; Pre-emergence action against ALOMY (herbicidal activity in percent) (ALOMY): 80%
